# Experimental data taken from patent US12421225B2, “Heteroaromatic amide derivative and medicament containing the same” (KAKEN PHARMACEUTICAL CO., LTD., priority 2018, dated 2025).
# What was measured:
# human Nav1.7 = human Nav1.7 (Homo sapiens (Human), UniProt Q15858); test: Human Nav1.7 inhibitory activity evaluation (automated patch clamp QPatch16X, HEK293A cells stably expressing human Nav1.7 and human Navβ1); type: cell-based; conditions: human Nav1.7, automated patch clamp
# Outline: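 IC50 calculated from the concentration-response of inward current evoked by the second −10 mV, 50 ms depolarisation, which follows a 15 s conditioning step at roughly 30-40% inactivation and a 100 ms −120 mV interval. Cells: HEK293A expressing human Nav1.7/Navβ1, automated patch clamp, room temperature, 0.1% DMSO final.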
# human Nav1.5 = human Nav1.5 (Homo sapiens (Human), UniProt Q14524); test: Human Nav1.5 inhibitory activity evaluation (automated patch clamp QPatch16X, HEK293 cells stably expressing human Nav1.5); type: cell-based; conditions: human Nav1.5, automated patch clamp
# Outline: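 IC50 derived from concentration-response of inward current at the 20th of 20 action-potential-mimicking pulses (holding −80 mV, leak corrected with −100 mV step). HEK293 cells stably expressing human Nav1.5, room temperature, extracellular pH 7.4, intracellular CsF-based pH 7.3, 0.1% DMSO.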
# Chain of human Nav1.7 (Q15858 whole entry): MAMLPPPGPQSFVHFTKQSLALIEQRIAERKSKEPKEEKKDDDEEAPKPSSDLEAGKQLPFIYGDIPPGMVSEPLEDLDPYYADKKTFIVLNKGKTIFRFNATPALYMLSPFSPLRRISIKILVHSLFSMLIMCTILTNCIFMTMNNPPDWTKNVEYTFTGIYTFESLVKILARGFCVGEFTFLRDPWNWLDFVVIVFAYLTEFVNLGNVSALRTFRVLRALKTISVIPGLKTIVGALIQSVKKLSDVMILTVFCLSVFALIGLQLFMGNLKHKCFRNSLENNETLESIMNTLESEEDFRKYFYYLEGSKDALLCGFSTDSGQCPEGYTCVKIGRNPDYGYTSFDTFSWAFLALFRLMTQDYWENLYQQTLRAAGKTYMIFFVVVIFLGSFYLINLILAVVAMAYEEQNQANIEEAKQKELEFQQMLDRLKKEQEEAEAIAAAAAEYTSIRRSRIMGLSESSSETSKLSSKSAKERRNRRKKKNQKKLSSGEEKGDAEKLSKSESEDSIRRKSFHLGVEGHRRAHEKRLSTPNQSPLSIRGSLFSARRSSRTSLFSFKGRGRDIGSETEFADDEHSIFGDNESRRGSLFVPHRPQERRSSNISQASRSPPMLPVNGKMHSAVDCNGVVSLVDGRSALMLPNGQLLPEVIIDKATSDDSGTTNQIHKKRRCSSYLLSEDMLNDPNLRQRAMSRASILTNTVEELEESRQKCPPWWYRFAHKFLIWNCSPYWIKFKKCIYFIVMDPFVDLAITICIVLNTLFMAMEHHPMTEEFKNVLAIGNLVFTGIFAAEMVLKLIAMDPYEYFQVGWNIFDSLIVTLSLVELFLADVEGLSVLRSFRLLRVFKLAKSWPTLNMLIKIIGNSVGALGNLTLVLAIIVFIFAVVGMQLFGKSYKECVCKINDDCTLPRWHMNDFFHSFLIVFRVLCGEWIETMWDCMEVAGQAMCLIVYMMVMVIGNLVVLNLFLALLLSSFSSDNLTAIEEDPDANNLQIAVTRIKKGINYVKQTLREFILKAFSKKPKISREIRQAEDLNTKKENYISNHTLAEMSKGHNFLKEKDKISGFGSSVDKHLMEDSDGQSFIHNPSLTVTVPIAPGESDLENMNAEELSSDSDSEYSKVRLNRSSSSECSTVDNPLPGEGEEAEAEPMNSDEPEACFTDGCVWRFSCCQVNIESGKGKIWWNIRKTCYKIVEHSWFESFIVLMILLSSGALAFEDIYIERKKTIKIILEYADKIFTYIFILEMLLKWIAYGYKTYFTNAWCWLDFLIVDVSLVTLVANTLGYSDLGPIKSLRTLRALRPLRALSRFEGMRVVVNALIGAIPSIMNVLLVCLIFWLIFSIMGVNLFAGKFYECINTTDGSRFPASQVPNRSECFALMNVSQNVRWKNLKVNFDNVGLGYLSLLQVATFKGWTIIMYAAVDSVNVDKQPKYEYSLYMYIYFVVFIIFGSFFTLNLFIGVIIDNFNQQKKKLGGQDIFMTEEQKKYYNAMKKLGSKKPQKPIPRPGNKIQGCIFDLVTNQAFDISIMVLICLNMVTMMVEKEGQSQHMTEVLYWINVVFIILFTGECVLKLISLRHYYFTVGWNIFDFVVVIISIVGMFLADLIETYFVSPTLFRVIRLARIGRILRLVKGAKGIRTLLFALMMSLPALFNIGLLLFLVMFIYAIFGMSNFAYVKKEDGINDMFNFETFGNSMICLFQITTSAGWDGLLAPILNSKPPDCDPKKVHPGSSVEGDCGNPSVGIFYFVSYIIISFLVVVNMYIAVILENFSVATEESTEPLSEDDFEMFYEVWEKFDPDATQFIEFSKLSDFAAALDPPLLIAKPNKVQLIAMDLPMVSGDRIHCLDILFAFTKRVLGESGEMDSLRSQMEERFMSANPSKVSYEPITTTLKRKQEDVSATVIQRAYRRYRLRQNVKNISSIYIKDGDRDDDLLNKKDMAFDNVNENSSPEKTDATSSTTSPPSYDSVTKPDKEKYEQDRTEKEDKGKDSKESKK
# Chain of human Nav1.7 (Q07699 19-218 partner): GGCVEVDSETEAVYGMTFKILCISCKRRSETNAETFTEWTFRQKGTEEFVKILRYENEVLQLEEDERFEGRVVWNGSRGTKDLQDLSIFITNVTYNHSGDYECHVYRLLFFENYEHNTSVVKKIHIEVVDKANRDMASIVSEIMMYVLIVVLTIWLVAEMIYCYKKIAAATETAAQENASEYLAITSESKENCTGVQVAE
# Chain of human Nav1.5 (Q14524 whole entry): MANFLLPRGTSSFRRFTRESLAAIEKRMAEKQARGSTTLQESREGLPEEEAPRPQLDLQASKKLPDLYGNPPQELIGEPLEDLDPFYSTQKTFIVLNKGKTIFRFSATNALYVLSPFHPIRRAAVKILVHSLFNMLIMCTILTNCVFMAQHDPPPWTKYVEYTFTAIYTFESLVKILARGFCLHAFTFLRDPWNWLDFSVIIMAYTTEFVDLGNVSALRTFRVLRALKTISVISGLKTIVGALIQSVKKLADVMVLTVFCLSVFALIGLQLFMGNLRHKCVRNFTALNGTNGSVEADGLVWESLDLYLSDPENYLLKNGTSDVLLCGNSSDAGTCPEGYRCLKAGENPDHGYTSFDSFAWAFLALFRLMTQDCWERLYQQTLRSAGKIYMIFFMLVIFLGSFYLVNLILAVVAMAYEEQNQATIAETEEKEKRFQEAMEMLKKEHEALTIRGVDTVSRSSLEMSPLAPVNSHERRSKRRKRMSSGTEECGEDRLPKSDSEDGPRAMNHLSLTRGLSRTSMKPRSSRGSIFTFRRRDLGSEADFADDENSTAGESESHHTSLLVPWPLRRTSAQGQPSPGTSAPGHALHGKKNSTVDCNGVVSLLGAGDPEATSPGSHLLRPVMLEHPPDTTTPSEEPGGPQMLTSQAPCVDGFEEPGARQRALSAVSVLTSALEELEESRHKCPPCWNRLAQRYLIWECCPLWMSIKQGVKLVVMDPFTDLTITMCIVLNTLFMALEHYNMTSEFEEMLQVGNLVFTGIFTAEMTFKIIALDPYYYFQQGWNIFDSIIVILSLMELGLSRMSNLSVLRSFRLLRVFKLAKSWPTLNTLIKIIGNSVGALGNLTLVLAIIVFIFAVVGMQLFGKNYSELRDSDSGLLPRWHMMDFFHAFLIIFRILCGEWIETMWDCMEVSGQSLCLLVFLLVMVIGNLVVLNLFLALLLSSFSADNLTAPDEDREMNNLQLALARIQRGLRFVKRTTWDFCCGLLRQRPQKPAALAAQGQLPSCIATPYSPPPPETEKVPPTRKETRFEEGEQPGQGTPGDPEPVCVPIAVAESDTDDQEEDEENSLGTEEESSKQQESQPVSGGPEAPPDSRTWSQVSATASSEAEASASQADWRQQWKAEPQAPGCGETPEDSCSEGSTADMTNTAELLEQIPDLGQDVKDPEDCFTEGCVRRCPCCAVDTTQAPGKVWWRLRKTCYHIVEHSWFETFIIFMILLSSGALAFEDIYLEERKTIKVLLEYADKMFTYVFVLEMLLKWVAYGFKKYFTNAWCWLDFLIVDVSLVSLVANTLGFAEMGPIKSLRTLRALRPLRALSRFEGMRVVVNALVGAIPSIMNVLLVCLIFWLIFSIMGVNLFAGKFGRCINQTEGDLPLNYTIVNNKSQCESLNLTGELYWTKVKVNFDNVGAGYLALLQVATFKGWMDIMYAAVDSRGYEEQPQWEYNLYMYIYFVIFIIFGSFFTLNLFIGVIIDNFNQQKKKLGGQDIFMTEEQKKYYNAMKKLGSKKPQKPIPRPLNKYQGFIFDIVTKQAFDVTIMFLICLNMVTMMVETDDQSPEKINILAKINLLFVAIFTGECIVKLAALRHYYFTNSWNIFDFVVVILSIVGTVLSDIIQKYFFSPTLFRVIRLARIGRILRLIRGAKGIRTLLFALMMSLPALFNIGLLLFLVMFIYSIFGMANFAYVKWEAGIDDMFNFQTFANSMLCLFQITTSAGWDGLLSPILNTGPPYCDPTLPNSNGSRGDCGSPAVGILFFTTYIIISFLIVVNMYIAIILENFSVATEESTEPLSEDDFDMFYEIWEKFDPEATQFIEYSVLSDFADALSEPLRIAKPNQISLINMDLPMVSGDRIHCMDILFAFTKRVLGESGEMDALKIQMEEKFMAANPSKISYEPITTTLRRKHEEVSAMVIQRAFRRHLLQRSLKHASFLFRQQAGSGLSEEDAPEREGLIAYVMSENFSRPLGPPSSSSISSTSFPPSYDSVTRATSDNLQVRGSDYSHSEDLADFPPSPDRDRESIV
SMILES,IC50 (human Nav1.7) [nM],IC50 (human Nav1.5) [nM]
O=C(c1cc2n(n1)CCC(c1ccccc1)O2)N1CCC(c2cccc(C(F)(F)F)c2)C1 (centres unmarked) [Example 350],< 10000,≥ 3000
COc1cccc2c1CC(NC(=O)c1cc3n(n1)CCC(c1ccccc1)O3)CO2 (centres unmarked) [Example 351],< 1000,≥ 3000
O=C(NC1COc2ccc(F)cc2C1)c1cc2n(n1)CCC(c1ccccc1)O2 (centres unmarked) [Example 352],< 1000,≥ 3000
O=C(NC1COc2cccc(Br)c2C1)c1cc2n(n1)CCC(c1ccccc1)O2 (centres unmarked) [Example 353],< 10000,≥ 3000
O=C(NC1COc2cccc(F)c2C1)c1cc2n(n1)CCC(c1ccccc1)O2 (centres unmarked) [Example 356],< 1000,≥ 3000
O=C(N[C@H]1COc2ccc(-c3cncnc3)cc2C1)c1cc2n(n1)CCC(c1ccccc1F)O2 (some centres unmarked) [Example 357],< 1000,≥ 3000
O=C(N[C@H]1COc2ccc(Cl)cc2C1)c1cc2n(n1)CCC(c1cccnc1)O2 (some centres unmarked) [Example 358],< 10000,≥ 3000
N#Cc1ccc2c(c1)C[C@@H](NC(=O)c1cc3n(n1)CCC(c1ccccc1F)O3)CO2 (some centres unmarked) [Example 359],< 1000,≥ 3000
COCc1ccc2c(c1)C[C@@H](NC(=O)c1cc3n(n1)CCC(c1ccccc1F)O3)CO2 (some centres unmarked) [Example 361],< 1000,≥ 3000
O=C(N[C@H]1COc2ccc(Cl)cc2C1)c1cc2n(n1)CCC(c1ccnc(C(F)(F)F)c1)O2 (some centres unmarked) [Example 362],< 10000,≥ 3000
N#Cc1ccc2c(c1)C[C@@H](NC(=O)c1cc3n(n1)CCC(c1ccc(F)cc1)O3)CO2 (some centres unmarked) [Example 364],< 1000,1000 to 3000
N#Cc1ccc2c(c1)C[C@@H](NC(=O)c1cc3n(n1)CCC(c1c(F)cccc1F)O3)CO2 (some centres unmarked) [Example 366],< 1000,1000 to 3000
N#Cc1ccc2c(c1)C[C@@H](NC(=O)c1cc3n(n1)CCC(C(F)(F)F)O3)CO2 (some centres unmarked) [Example 373],< 10000,≥ 3000
N#Cc1ccc2c(c1)C[C@@H](NC(=O)c1cc3n(n1)CCC(C(F)(F)F)O3)CO2 (some centres unmarked) [Example 374],< 1000,≥ 3000
O=C(N[C@H]1COc2ccc(-c3cccnc3)cc2C1)c1cc2n(n1)CCC(C(F)(F)F)O2 (some centres unmarked) [Example 375],< 1000,≥ 3000
COc1ccc(-c2ccc3c(c2)C[C@@H](NC(=O)c2cc4n(n2)CCC(C(F)(F)F)O4)CO3)cn1 (some centres unmarked) [Example 378],< 10000,≥ 3000
O=C(N[C@H]1COc2ccc(-c3ccccn3)cc2C1)c1cc2n(n1)CCC(C(F)(F)F)O2 (some centres unmarked) [Example 382],< 10000,≥ 3000
CC1(C)CCn2nc(C(=O)N[C@H]3COc4ccc(-c5ccccn5)cc4C3)cc2O1 [Example 383],< 1000,≥ 3000
N#Cc1ccc2c(c1)C[C@@H](NC(=O)c1cc3n(n1)CCC(C#CC(F)(F)F)O3)CO2 (some centres unmarked) [Example 386],< 1000,≥ 3000
CCCC1CCn2nc(C(=O)N[C@H]3COc4ccc(Cl)cc4C3)cc2O1 (some centres unmarked) [Example 389],< 1000,1000 to 3000
O=C(N[C@H]1COc2ccc(COCC3CC3)cc2C1)c1cc2n(n1)CCC(C(F)(F)F)O2 (some centres unmarked) [Example 391],< 1000,≥ 3000

SMILES,IC50 (human Nav1.7) [nM],IC50 (human Nav1.5) [nM]
O=C(N[C@H]1COc2ccc(COc3ccccn3)cc2C1)c1cc2n(n1)CCC(C(F)(F)F)O2 (some centres unmarked) [Example 392],< 1000,1000 to 3000
COC(C)(C)CCc1ccc2c(c1)C[C@@H](NC(=O)c1cc3n(n1)CCC(C(F)(F)F)O3)CO2 (some centres unmarked) [Example 400],< 1000,≥ 3000
O=C(N[C@H]1COc2ccc(CCN3CC(F)(F)C3)cc2C1)c1cc2n(n1)CCC(C(F)(F)F)O2 (some centres unmarked) [Example 401],< 10000,≥ 3000
O=C(N[C@H]1COc2ccc(C(F)(F)F)cc2C1)c1cc2n(n1)CCC(C#CC1CC1)O2 (some centres unmarked) [Example 402],< 1000,≥ 3000
N#Cc1ccc2c(c1)C[C@@H](NC(=O)c1cc3n(n1)CCC(COc1ccccn1)O3)CO2 (some centres unmarked) [Example 411],< 1000,≥ 3000
N#Cc1ccc2c(c1)C[C@@H](NC(=O)c1cc3n(n1)CCC(COCC(F)(F)C(F)(F)F)O3)CO2 (some centres unmarked) [Example 412],< 1000,1000 to 3000
N#Cc1ccc2c(c1)C[C@@H](NC(=O)c1cc3n(n1)CCC(CSCC(F)(F)F)O3)CO2 (some centres unmarked) [Example 422],< 10000,≥ 3000
O=C(N[C@H]1COc2ccc(-c3cnccn3)cc2C1)c1cc2n(n1)CCC(COCC1CC1)O2 (some centres unmarked) [Example 425],< 1000,≥ 3000
Cn1ccc(-c2ccc3c(c2)C[C@@H](NC(=O)c2cc4n(n2)CCC(COCC2CC2)O4)CO3)n1 (some centres unmarked) [Example 426],< 10000,≥ 3000
O=C(N[C@H]1COc2ccc(-c3cscn3)cc2C1)c1cc2n(n1)CCC(COCC1CC1)O2 (some centres unmarked) [Example 427],< 1000,1000 to 3000
O=C(N[C@H]1COc2ccc(-c3cncs3)cc2C1)c1cc2n(n1)CCC(COCC1CC1)O2 (some centres unmarked) [Example 428],< 1000,≥ 3000
Cn1ncc(-c2ccc3c(c2)C[C@@H](NC(=O)c2cc4n(n2)CCC(COCC2CC2)O4)CO3)n1 (some centres unmarked) [Example 429],< 10000,≥ 3000
O=C(N[C@H]1COc2ccc(C(F)(F)F)cc2C1)c1cc2n(n1)CCC(COCC(F)(F)F)O2 (some centres unmarked) [Example 432],< 1000,1000 to 3000
O=C(N[C@H]1COc2ccc(CC(F)F)cc2C1)c1cc2n(n1)CCC(COC1CCC1)O2 (some centres unmarked) [Example 437],< 1000,1000 to 3000
O=C(N[C@H]1COc2ccc(CCOC(F)(F)F)cc2C1)c1cc2n(n1)CC(C(F)(F)F)O2 (some centres unmarked) [Example 447],< 1000,≥ 3000
O=C(N[C@H]1COc2ccc(Cl)cc2C1)c1cc2n(n1)CC(CNCC(F)(F)F)O2 (some centres unmarked) [Example 448],< 1000,1000 to 3000
N#Cc1ccc2c(c1)C[C@@H](NC(=O)c1cc3n(n1)CC(COc1ccccn1)O3)CO2 (some centres unmarked) [Example 450],< 10000,≥ 3000
O=C(N[C@H]1COc2ccc(Cl)cc2C1)c1cc2n(n1)CC(CCn1cccn1)O2 (some centres unmarked) [Example 451],< 1000,1000 to 3000
N#Cc1ccc2c(c1)C[C@@H](NC(=O)c1cc3n(n1)CC(COCC1CC1)O3)CO2 (some centres unmarked) [Example 454],< 10000,≥ 3000
O=C(N[C@H]1COc2ccc(-c3cnccn3)cc2C1)c1cc2n(n1)CC(CCOCC(F)(F)F)O2 (some centres unmarked) [Example 456],< 1000,1000 to 3000
Cn1ccc(-c2ccc3c(c2)C[C@@H](NC(=O)c2cc4n(n2)CC(CCSCC(F)(F)F)O4)CO3)n1 (some centres unmarked) [Example 457],< 1000,≥ 3000

SMILES,IC50 (human Nav1.7) [nM],IC50 (human Nav1.5) [nM]
Cn1cc(-c2ccc3c(c2)C[C@@H](NC(=O)c2cc4n(n2)CC(CCOCC2CC2)O4)CO3)cn1 (some centres unmarked) [Example 460],< 1000,≥ 3000
Cn1ccc(-c2ccc3c(c2)C[C@@H](NC(=O)c2cc4n(n2)CC(CCOCC2CC2)O4)CO3)n1 (some centres unmarked) [Example 461],< 1000,1000 to 3000
O=C(N[C@H]1COc2ccc(CCOC(F)(F)F)cc2C1)c1cc2n(n1)CC(COC(F)F)O2 (some centres unmarked) [Example 462],< 1000,≥ 3000
N#Cc1ccc2c(c1)C[C@@H](NC(=O)c1cc3n(n1)CC(COCC1CCC1)O3)CO2 (some centres unmarked) [Example 464],< 1000,≥ 3000
O=C(N[C@H]1COc2ccc(CC(F)F)cc2C1)c1cc2n(n1)CC(CCOCC(F)(F)F)O2 (some centres unmarked) [Example 466],< 1000,1000 to 3000
COc1ncc(-c2ccc3c(c2)C[C@@H](NC(=O)c2cc4n(n2)CC(COCC2CC2)O4)CO3)cn1 (some centres unmarked) [Example 468],< 1000,≥ 3000
N#Cc1ccc2c(c1)C[C@@H](NC(=O)c1cc3n(n1)CC(CCOC1CCC1)O3)CO2 (some centres unmarked) [Example 470],< 1000,1000 to 3000
O=C(N[C@H]1COc2ccc(Cl)cc2C1)c1nn2c(c1-c1ccccc1)OCCCC2 [Example 481],< 1000,≥ 3000
O=C(N[C@H]1COc2ccccc2C1)c1cc2n(n1)CCN(CC(F)(F)C(F)(F)F)C2 [Example 487],< 1000,1000 to 3000
O=C(N[C@H]1COc2ccccc2C1)c1cc2n(n1)CCN(CC1CC(F)(F)C1)C2 [Example 488],< 10000,≥ 3000
N#Cc1ccc2c(c1)C[C@@H](NC(=O)c1cc3n(n1)CCN(CC(F)(F)C(F)(F)F)C3)CO2 [Example 489],< 10000,≥ 3000
O=C(N[C@H]1COc2ccccc2C1)c1cc2n(n1)CCN(CC(C1CC1)C1CC1)C2 [Example 490],< 10000,≥ 3000
N#Cc1ccc2c(c1)C[C@@H](NC(=O)c1cc3n(n1)CCN(CCC1CC1)C3)CO2 [Example 491],< 10000,≥ 3000
O=C(N[C@H]1COc2ccc(C(F)F)cc2C1)c1cc2n(n1)CCN(Cc1ccccn1)C2 [Example 492],< 10000,≥ 3000
O=C(N[C@H]1COc2ccc(Cl)cc2C1)c1cc2n(n1)CCN(CC(C(F)(F)F)C(F)(F)F)C2 [Example 493],< 1000,1000 to 3000
O=C(N[C@H]1COc2ccc(Cl)cc2C1)c1cc2n(n1)CCN(CC1CCC1(F)F)C2 (some centres unmarked) [Example 494],< 1000,1000 to 3000
O=C(N[C@H]1COc2ccc(Cl)cc2C1)c1cc2n(n1)CCN(CC(F)(F)C1CC1)C2 [Example 495],< 1000,≥ 3000
N#Cc1ccc2c(c1)C[C@@H](NC(=O)c1cc3n(n1)CCN(CCC1CCC1)C3)CO2 [Example 496],< 1000,1000 to 3000
N#Cc1ccc2c(c1)C[C@@H](NC(=O)c1cc3n(n1)CCN(Cc1ccccc1F)C3)CO2 [Example 497],< 1000,≥ 3000
